Laboratory results: patent US11395867B2, “Degradable removable implant for the sustained release of an active compound” (Janssen Sciences Ireland Unlimited Company, priority 2009, dated 2022)
Several values for one entry are separate records, joined by “and”; a condition that tells them apart may be missing. Identical values can stand only once.

What was measured:
[1] = In vivo testing of electrostatically spun tube containing two sets of microparticles, plasma concentrations; parameters: species or system Sprague-Dawley rats; conditions: rat, subcutaneous electrospun tube implant, TMC278 139 mg/kg, compound 1 64 mg/kg, individual animals 1-4
Method: Tubes were electrostatically spun from a 100 mg/ml polydioxanone (IVHFIP=1.99 dl/g) hexafluoroisopropanol solution. A 4 mm mandrel was used to provide a consistent inner diameter of 4 mm. The rotational speed of the mandrel was 400 rpm, the charging voltage range was 20/−10 kV, and the pump flow rate was 10 ml/hour. The resulting wall thickness was 500 microns. Fiber diameters were 1-2 microns and the average pore size formed from the network of fibers was 20 microns as determined by Scanning Electron Microscopy.
The microparticles were prepared by the spinning disc method using a polymer/acetone solution with a concentration ranging from 3-4% (w/w). Two sets of microparticles were prepared. The target composition of one set was 70% (w/w) TMC278 and 30% (w/w) PLGA 50/50 (Lakeshore Biomaterials IVHFIP=0.79 dl/g). The target composition of the other set of microparticles was 70% (w/w) of compound 1 (=compound 14 of WO01/25240) and 30% (w/w) PLGA 50/50 (Lakeshore Biomaterials IVHFIP=0.18 dl/g). This compound 1 has the following structure and will be referred to hereinafter as compound 1:
Approximately 133 mg of the microparticle mixture was introduced into the electrostatically prepared tubes using a spatula.
(§1) The prepared tubes were implanted into the subcutaneous space on the back of four male Sprague-Dawley rats weighing between 250-350 grams. The dose of TMC278 was 139 mg/kg and the dose of compound 1 was 64 mg/kg. The tail vein was sampled at pre-determined time points. Blood samples were immediately centrifuged to extract the plasma, plasma was analyzed for compound 1 and TMC278 by LC/MS/MS. The lower limit of quantitation was 0.4 ng/ml and 2 ng/ml for TMC278 and compound 1, respectively.

[2] = In vivo testing of laser drilled melt extruded tube containing two sets of microparticles, plasma concentrations; conditions: rat, subcutaneous laser drilled extruded tube implant, TMC278 139 mg/kg, compound 1 64 mg/kg, individual animals 1-4
Method: Tubes with inner diameter of 4.5 mm were extruded from polydioxanone (IVHFIP=1.99 dl/g) using a ¾ inch single screw extruder fitted with a tube die. The dimensions of the tube were monitored using an in-line laser diameter measuring system and maintained using a puller. Following the extrusion the tubes were laser drilled. In preparation for the laser drilling a mask design was prepared that located the holes 260 microns apart from one another. Scanning electron microscopy was used to size the inner and outer diameter of the holes. […] The microparticles were prepared as described in Example 9. Approximately 133 mg of the microparticle mixture was introduced into the tubes.
as §1, with “plasma, and” for “plasma,”, “quantitation for TMC278 and compound 1” for “quantitation”, “2.0 ng/ml,” for “2 ng/ml for TMC278 and compound 1,”

[3] = In vivo testing of laser drilled melt extruded tube containing two sets of microparticles formulated with F108, plasma concentrations; parameters: species or system Sprague-Dawley rats; conditions: rat, subcutaneous laser drilled extruded tube implant, TMC278 109 mg/kg, compound 1 78 mg/kg, individual animals 1-4
Method: The laser drilled melt extruded tube was prepared as described above in example 10. The microparticles were prepared by the spinning disc method using a 3% (w/w) polymer/acetone solution. Two sets of microparticles were prepared. The target composition of one set was 70% (w/w) TMC278, 20% (w/w) PLGA 50/50 (Lakeshore Biomaterials IVHFIP=0.79 dl/g), and 10% (w/w) F108 (BASF). The target composition of the other set of microparticles was 70% (w/w) compound 1, 20% (w/w) PLGA 50/50 (Lakeshore Biomaterials IVHFIP=0.18 dl/g), and 10% (w/w) F108. The F108 was added to the polymer solution.
The size range of the microparticles was determined by randomly selecting a sample of microparticles and placing them on the stage of an optical microscope and using a ruler to measure the various sizes of the microparticles in the randomly selected sample. The size range of the TMC278 and compound 1 microparticles was 10-100 microns and 20-100 microns, respectively. Microparticles were mixed as described in example 9. Approximately 133 mg of the microparticle mixture was introduced into tubes using a spatula to transfer the contents.
as §1, with “TMC278” for “TMC278 was 139 mg/kg”, “and” for “and the dose of”, “109 mg/kg and 78 mg/kg, respectively.” for “64 mg/kg.”, “quantitation for TMC278 and compound 1” for “quantitation”, “ng/ml,” for “ng/ml for TMC278 and compound 1,”

[4] = Solubility experiments of TMC278 in water; format: physicochemical
Description: The solubility of TMC278 dramatically increases at pH=2. […] The use of an acidic binder gel that can effectively lower pH, can increase the rate of elution of TMC278 from the polymer matrix. Increasing the concentration of the acidic polymer in the gel can depress the pH even further (Table 1).

[5] = male, Sprague-Dawley, plasma, subcutaneous, 7 day
[6] = male, Sprague-Dawley, plasma, subcutaneous, 14 day

In the case of `Cc1cc(/C=C/C#N)cc(C)c1Nc1ccnc(Nc2ccc(C#N)cc2)n1` [TMC278, rilpivirine], the plasma concentration ([1]; 3 hour) is reported as 0.562 ng/mL and 0.462 ng/mL and 0.576 ng/mL, the plasma concentration ([1]; 1 day) is reported as 0.441 ng/mL and <0.4 ng/mL and 0.575 ng/mL and the plasma concentration ([1]; 3 day) is reported as 0.518 ng/mL and <0.4 ng/mL and 0.549 ng/mL. For the same compound, the plasma concentration ([1]; 7 day) was 0.645 ng/ml and <0.4 ng/ml (2×), the plasma concentration ([1]; 14 day) was <0.4 ng/ml (2×) and 0.424 ng/ml and the plasma concentration ([1]; 28 day) was <0.4 ng/ml (2×) and 0.475 ng/ml. For the same compound, the plasma concentration ([1]; 35 day) was 0.527 ng/mL and 0.769 ng/mL and 0.400 ng/mL, the concentration at 3 h ([1]; male, Sprague-Dawley, plasma, subcutaneous, 3 hour) was 0.505 ng/mL and the concentration at 1 day ([1]; male, Sprague-Dawley, plasma, subcutaneous, 1 day) was less than 0.4 ng/mL. For the same compound, the concentration at 3 day ([1]; male, Sprague-Dawley, plasma, subcutaneous, 3 day) was less than 0.4 ng/mL, the concentration at 7 day [1, 5] was 0.421 ng/mL and the concentration at 14 day [1, 6] was less than 0.4 ng/mL. For the same compound, the concentration at 28 day ([1]; male, Sprague-Dawley, plasma, subcutaneous, 28 day) was less than 0.4 ng/mL, the concentration at 35 day ([1]; male, Sprague-Dawley, plasma, subcutaneous, 35 day) was less than 0.4 ng/mL and the plasma concentration ([2]; 3 hour) was 0.551 ng/mL and 1.42 ng/mL and 2.51 ng/mL and 1.61 ng/mL. For the same compound, the plasma concentration ([2]; 1 day) was <0.4 ng/ml (2×) and 0.432 ng/ml and 1.22 ng/ml, the plasma concentration ([2]; 3 day) was <0.4 ng/ml (3×) and 1.14 ng/ml and the plasma concentration ([2]; 7 day) was 0.4 ng/mL and 0.695 ng/mL and <0.4 ng/mL. For the same compound, the plasma concentration ([2]; 14 day) was <0.4 ng/mL and 0.425 ng/mL and 0.456 ng/mL, the plasma concentration ([2]; 28 day) was <0.4 ng/mL and 0.451 ng/mL and 1.36 ng/mL and 0.773 ng/mL and the plasma concentration ([2]; 35 day) was <0.4 ng/mL and 0.403 ng/mL and 2.11 ng/mL and 0.881 ng/mL. For the same compound, the concentration at 7 day [2, 5] was less than 0.4 ng/mL, the concentration at 14 day [2, 6] was less than 0.4 ng/mL and the plasma concentration ([3]; 3 hour) was 2.12 ng/mL and 1.40 ng/mL and 2.42 ng/mL and 1.02 ng/mL. For the same compound, the plasma concentration ([3]; 1 day) was 0.797 ng/mL and 0.522 ng/mL and 0.939 ng/mL and <0.4 ng/mL, the plasma concentration ([3]; 3 day) was <0.4 ng/ml (2×) and 0.521 ng/ml and the plasma concentration ([3]; 7 day) was <0.4 ng/ml (2×) and 0.405 ng/ml. The plasma concentration ([3]; 14 day) was <0.4 ng/mL and 0.478 ng/mL and 0.664 ng/mL, the plasma concentration ([3]; 28 day) was 2.13 ng/mL and 0.539 ng/mL and 1.13 ng/mL and 2.19 ng/mL and the plasma concentration ([3]; 35 day) was 2.17 ng/mL and 0.744 ng/mL and 1.48 ng/mL and 2.48 ng/mL. The concentration at 3 day ([3]; male, Sprague-Dawley, plasma, 3 day) was 0.485 ng/mL, the concentration at 7 day ([3]; male, Sprague-Dawley, plasma, 7 day) was less than 0.4 ng/mL and the concentration at 14 day ([3]; male, Sprague-Dawley, plasma, 14 day) was 0.6 ng/mL. The “solubility in water at pH of 2 relative to pH of 7” value ([4]; pH 2 vs pH 7) was 950 times and the solubility in water ([4]; water) was “extreme insolubility”.
